According to ChEMBL document CHEMBL3769391, “Identification of a new cyathane diterpene that induces mitochondrial and autophagy-dependent apoptosis and shows a potent in vivo anti-colorectal cancer activity” (Eur J Med Chem, 2016):
Calls of active or inactive are those of the source. The calls are words filed in the database; no cut-off is given here.

Columns and labels:
Mus musculus [1] = assay: Hepatotoxicity in immune deficient nude BALB/c mouse xenografted with human HCT116 cells assessed as changes in albumin level in serum at 5 and 10 mg/kg, ip administered every other day for 2 weeks measured during compound dosing; type: toxicity, organism-based, HCT-116; details: in vivo, 336 h
Mus musculus [2] = assay: Toxicity in immune deficient nude BALB/c mouse xenografted with Bax deficient human HCT116 cells assessed as changes in body weight at 5 and 10 mg/kg, ip administered every other day for 2 weeks measured during compound dosing; type: organism-based, HCT-116; details: in vivo, 336 h
HCT-116 [3] = assay: Induction of apoptosis in Bax deficient human HCT116 cells assessed as late apoptotic cells at 5 uM after 24 hrs by Annexin V-FITC/propidium iodide staining based flow cytometry (reference value: 1.5%); type: functional
Mus musculus [4] = assay: Toxicity in immune deficient nude BALB/c mouse xenografted with human HCT116 cells assessed as changes in body weight at 5 and 10 mg/kg, ip administered every other day for 2 weeks measured during compound dosing; type: organism-based, HCT-116; details: in vivo, 336 h
HCT-116 [5] = assay: Induction of apoptosis in human HCT116 cells assessed as late apoptotic cells at 2.5 uM after 24 hrs by Annexin V-FITC/propidium iodide staining based flow cytometry (reference value: 4.54%); type: functional
Mus musculus [6] = assay: Hepatotoxicity in immune deficient nude BALB/c mouse xenografted with Bax deficient human HCT116 cells assessed as changes in alanine transaminase level in serum at 5 and 10 mg/kg, ip administered every other day for 2 weeks measured during compound dosing; type: toxicity, organism-based, HCT-116; details: in vivo, 336 h
Mus musculus [7] = assay: Hepatotoxicity in immune deficient nude BALB/c mouse xenografted with human HCT116 cells assessed as changes in total protein level in serum at 5 and 10 mg/kg, ip administered every other day for 2 weeks measured during compound dosing; type: toxicity, organism-based, HCT-116; details: in vivo, 336 h
Mus musculus [8] = assay: Toxicity in immune deficient nude BALB/c mouse xenografted with Bax deficient human HCT116 cells assessed as discomfort behavioral changes at 5 and 10 mg/kg, ip administered every other day for 2 weeks measured during compound dosing; type: organism-based, HCT-116; details: in vivo, 336 h
HCT-116 [9] = assay: Induction of apoptosis in Bax deficient human HCT116 cells assessed as late apoptotic cells at 10 uM after 24 hrs by Annexin V-FITC/propidium iodide staining based flow cytometry (reference value: 1.5%); type: functional
HCT-116 [10] = assay: Induction of apoptosis in human HCT116 cells assessed as caspase activation at 5 uM by CaspACEFITC-VAD-FMK staining based flow cytometry; type: functional, cell-based; details: TDE = time-dependent effect
HCT-116 [11] = assay: Induction of apoptosis in human HCT116 cells assessed as changes in Bcl-X(L) expression at 5 uM after 6 to 24 hrs by Western blot analysis; type: functional, cell-based
SW480 = assay: Induction of apoptosis in human SW480 cells assessed as apoptotic cells at 10 uM after 24 hrs by Annexin V-FITC/propidium iodide staining based flow cytometry; type: functional, cell-based
HCT-116 [12] = assay: Induction of apoptosis in ATG5 knockdown human HCT116 cells assessed as early apoptotic cells at 5 uM after 24 hrs by Annexin V-FITC/propidium iodide staining based flow cytometry (reference value: 1.13%); type: functional
[13] = Cytotoxicity against human HCT116 cells assessed as reduction in cell viability after 24 hrs by MTT assay; type: functional, cell-based; details: HCT-116, 24 h
HCT-116 [14] = assay: Induction of apoptosis in Bax deficient human HCT116 cells assessed as late apoptotic cells at 15 uM after 24 hrs by Annexin V-FITC/propidium iodide staining based flow cytometry (reference value: 1.5 to 1.56%); type: functional

With `CO[C@@H]1C(C=O)=CC[C@@H]2C3=C(C(C)C)CC[C@]3(C)CC[C@@]2(C)[C@H]1O` the Activity (Mus musculus [1]) was “Non-toxic”, the Activity (Mus musculus [2]) was “Non-toxic” and the Activity (HCT-116 [3]) was 4.14%. The Activity (Mus musculus [4]) was “Non-toxic”, the Activity (HCT-116 [5]) was 7.54% and the Activity (Mus musculus [6]) was “Non-toxic”. The Activity (Mus musculus [7]) was “Non-toxic”, the Activity (Mus musculus [8]) was “Non-toxic” and the Activity (HCT-116 [9]) was 17.64%. For the same compound, the Activity (HCT-116 [10]) was “tde”, the Activity (HCT-116 [11]) was “inactive” and the Activity (SW480) was “Active”. The Activity (HCT-116 [12]) was 2.36%, the IC50 [13] was 9.16 µM and the Activity (HCT-116 [14]) was 29.02%.
